# Measurements as given in patent publication EP2123668A1, “Immunogenic polypeptides that mimic the surface polysaccharide O-antigen from serotype 2A shigella flexneri, method for obtaining the same, and their use in vaccine and diagnostic compositions” (INSTITUT PASTEUR, priority 2008, dated 2009).
# Read-outs that look alike come from different tables or passages of the source. No end group written: not given here.
# How the values were obtained:
# LPS/F22-4 [1] = conditions: cited from earlier work
# LPS/F22-4 [2] = assay: ELISA inhibition of LPS/F22-4 binding; set-up: species or system murine
# mAb F22-4 [3] = assay: StopFlow antibody-ligand binding; set-up: species or system murine
# mAb F22-4 [4] = assay: Biacore antibody-ligand binding (equilibrium and kinetic analysis); set-up: species or system murine
# F22-4 antibody = assay: ITC microcalorimetry; format: binding, murine
# Source text: ITC experiments with F22-4 antibody and several chemically synthesized oligosaccharidic fragments of O-Ag 2a lead to two major results.
# [5] = test system: S. flexneri 2a mAb (F22-4); assay: Reactivity of selected or conjugated peptides with the F22-4 mAb; format: binding, murine; conditions: conjugated peptides, coupled to BSA
# Source text: Two protective mAbs directed against S. flexneri LPS 2a (IgG C1-7 and IgG F22-4) were used for mimotope selection using the two libraries displaying 12 amino acid-long inserts.
# The peptides have been synthesized with a flanking region AEGEF at the N-terminal and DPAKC at the C-terminal. The peptides have been conjugated to maleimide-activated bovine serum albumin (BSA) and to maleimide-activated keyhole limpet hemocyanine (KLH) using a kit from Pierce. The seven different sequences have been selected by Partner 4, all showing good reactivity with the S. flexneri 2a mAb (F22-4) and being inhibited by the LPS. Five of the sequences, B24, B1, C8, C26 and C17 (shown below in bold) have been chosen for further analyzes. The reason that the peptides C22 and C3 have been omitted are that they contain cysteine and the conjugation procedure that we exploited used cysteine for coupling to the protein. The conjugated peptides have been tested for reactivity with the F22-4 mAb and were positive when coupled to BSA. […] Sequences of peptides selected using the S. flexneri 2a specific mAb F22-4
# LPS/F22-4 [6] = assay: ELISA inhibition of LPS/F22-4 binding; set-up: species or system murine; remark: listed apart in the source
# mAb F22-4 [7] = assay: Biacore antibody-ligand binding (equilibrium and kinetic analysis); set-up: species or system murine; conditions: equilibrium analysis; read-out: Biacore Eq KD
# [8] = equilibrium analysis, read-out: Biacore Eq KD
# [9] = kinetic analysis, read-out: Biacore Cin KD
# [10] = PBS buffer at 25°C, read-out: KD
# [11] = Table 6 recapitulation, read-out: microcal KD
Compound,"effectiveness in inhibition compared with ECD (LPS/F22-4 [1]; LPS/F22-4 inhibition studies (12), (13))",IC50 (LPS/F22-4 [2]) [µM],Kd (mAb F22-4 [3]) [µM],StopFlow koff(s-1) (mAb F22-4 [3]),StopFlow kon(M-1.s-1) (mAb F22-4 [3]),Kd (mAb F22-4 [4]; [8]) [µM],Biacore Cin koff(s-1) (mAb F22-4 [4]; kinetic analysis),Kd (mAb F22-4 [4]; [9]) [µM],ΔH (Kcal/mol) (F22-4 antibody; PBS buffer at 25°C),ΔS (cal/mol/K) (F22-4 antibody; PBS buffer at 25°C),Kd (F22-4 antibody; [10]) [µM],Kd (F22-4 antibody; [11]) [µM],IC50 compared with B(E)CDA'B'(E')C' (LPS/F22-4 [1]; reference (12)),reactivity with the F22-4 mAb [5],IC50 (LPS/F22-4 [6]) [µM],Kd (mAb F22-4 [7]) [µM]
COC1OC(C)C(OC2OC(CO)C(O)C(O)C2O)C(OC2OC(C)C(O)C(O)C2OC2OC(C)C(O)C(O)C2OC2OC(CO)C(O)C(OC3OC(C)C(OC4OC(CO)C(O)C(O)C4O)C(OC4OC(C)C(O)C(O)C4O)C3O)C2NC(C)=O)C1O (stereo not drawn) [B(E)CDAB(E)C],about three orders of magnitude more effective,0.22,0.16,"0,05 s-1","3,10E+05 M-1.s-1",0.61,"0,068±0,03 s-1",0.75,"-19,5±0,2 Kcal/mol","-36,6 cal/mol/K",0.47,0.47,,,,
CO[C@@H]1O[C@@H](C)[C@H](O)[C@@H](O)[C@H]1O[C@@H]1O[C@H](CO)[C@@H](O)[C@H](O[C@@H]2O[C@@H](C)[C@H](O[C@H]3O[C@H](CO)[C@@H](O)[C@H](O)[C@H]3O)[C@@H](O[C@@H]3O[C@@H](C)[C@H](O)[C@@H](O)[C@H]3O)[C@H]2O)[C@H]1NC(C)=O [B(E)CDA],,2.5,3.5,"2,4 s-1","7,00E+05 M-1.s-1",4.1,,,"-14,2±0,1 Kcal/mol","-22,7 cal/mol/K",3.35,3.35,,,,
COC1OC(C)C(OC2OC(CO)C(O)C(O)C2O)C(OC2OC(C)C(O)C(O)C2OC2OC(C)C(O)C(O)C2OC2OC(CO)C(O)C(OC3OC(C)C(OC4OC(CO)C(O)C(O)C4O)C(OC4OC(C)C(O)C(O)C4OC4OC(C)C(O)C(O)C4OC4OC(CO)C(O)C(O)C4NC(C)=O)C3O)C2NC(C)=O)C1O (stereo not drawn) [DAB(E)CDAB(E)C],,5 ± 1.4,5,"0,29 s-1","5,90E+04 M-1.s-1",5.32,"0,123±0,04 s-1",4.47,"-19,5±01,2 Kcal/mol","-41,2 cal/mol/K",5.4,5.4,only an order of magnitude higher,,,
CO[C@@H]1O[C@@H](C)[C@H](O[C@H]2O[C@H](CO)[C@@H](O)[C@H](O)[C@H]2O)[C@@H](O[C@@H]2O[C@@H](C)[C@H](O)[C@@H](O)[C@H]2O[C@@H]2O[C@@H](C)[C@H](O)[C@@H](O)[C@H]2O[C@@H]2O[C@H](CO)[C@@H](O)[C@H](O)[C@H]2NC(C)=O)[C@H]1O [DAB(E)C],,> 1000,> 1100,,,,,,,,,,,,,
CO[C@@H]1O[C@@H](C)[C@H](O)[C@@H](O)[C@H]1O[C@@H]1O[C@@H](C)[C@H](O)[C@@H](O)[C@H]1O[C@@H]1O[C@H](CO)[C@@H](O)[C@H](O[C@@H]2O[C@@H](C)[C@H](O[C@H]3O[C@H](CO)[C@@H](O)[C@H](O)[C@H]3O)[C@@H](O)[C@H]2O)[C@H]1NC(C)=O [ECDAB],,354 ± 40,300,,,,,,"-10,8±0,1 Kcal/mol","-19,6 cal/mol/K",230 ± 2,230 ± 2,,,,
COC1OC(C)C(O)C(O)C1OC1OC(CO)C(O)C(OC2OC(C)C(OC3OC(CO)C(O)C(O)C3O)C(O)C2O)C1NC(C)=O (stereo not drawn) [ECDA],,,,,,,,,"-11,3±0,1 Kcal/mol",-19.2 cal/mol/K,89 ± 1,,,,,
CC(=O)N[C@@H]1[C@@H](O[C@@H]2O[C@@H](C)[C@H](O[C@H]3O[C@H](CO)[C@@H](O)[C@H](O)[C@H]3O)[C@@H](O[C@@H]3O[C@@H](C)[C@H](O)[C@@H](O)[C@H]3O[C@@H]3O[C@@H](C)[C@H](O)[C@@H](O)[C@H]3O[C@@H]3O[C@H](CO)[C@@H](O)[C@H](O[C@@H]4O[C@@H](C)[C@H](O[C@H]5O[C@H](CO)[C@@H](O)[C@H](O)[C@H]5O)[C@@H](O[C@@H]5O[C@@H](C)[C@H](O)[C@@H](O)[C@H]5O[C@@H]5O[C@@H](C)[C@H](O)[C@@H](O)[C@H]5O)[C@H]4O)[C@H]3NC(C)=O)[C@H]2O)[C@H](O)[C@@H](CO)O[C@H]1O [[AB(E)CD]2],,0.7,1.5,"0,13 s-1","8,30E+04 M-1.s-1",1,"0,074±0,004 s-1",1.09,"-17,7±0,7 Kcal/mol","-31,7 cal/mol/K",1.04,1.04,,,,
CC(=O)N[C@@H]1[C@@H](O[C@@H]2O[C@@H](C)[C@H](O[C@H]3O[C@H](CO)[C@@H](O)[C@H](O)[C@H]3O)[C@@H](O[C@@H]3O[C@@H](C)[C@H](O)[C@@H](O)[C@H]3O[C@@H]3O[C@@H](C)[C@H](O)[C@@H](O)[C@H]3O[C@@H]3O[C@H](CO)[C@@H](O)[C@H](O[C@@H]4O[C@@H](C)[C@H](O[C@H]5O[C@H](CO)[C@@H](O)[C@H](O)[C@H]5O)[C@@H](O[C@@H]5O[C@@H](C)[C@H](O)[C@@H](O)[C@H]5O[C@@H]5O[C@@H](C)[C@H](O)[C@@H](O)[C@H]5O[C@@H]5O[C@H](CO)[C@@H](O)[C@H](O[C@@H]6O[C@@H](C)[C@H](O[C@H]7O[C@H](CO)[C@@H](O)[C@H](O)[C@H]7O)[C@@H](O[C@@H]7O[C@@H](C)[C@H](O)[C@@H](O)[C@H]7O[C@@H]7O[C@@H](C)[C@H](O)[C@@H](O)[C@H]7O)[C@H]6O)[C@H]5NC(C)=O)[C@H]4O)[C@H]3NC(C)=O)[C@H]2O)[C@H](O)[C@@H](CO)O[C@H]1O [[AB(E)CD]3],,0.32,0.69,"0,11 s-1","1,70E+05 M-1.s-1",0.56,"0,075+0,005^(H) s-1",1.56,"-17,3±0,8 Kcal/mol","-30,6 cal/mol/K",1.03,1.03,,,,
AEGEFPHGEIFHMMRRPDPAKC-COOH (AEGEFPHGEIFHMMRRPDPAKC-OH) [Peptide C17],,,,,,,,,,,,,,poor reactivity,,
YLEDWIKYNNQK [Peptide B1],,,,,,,,,"-24,0 ±0,1 Kcal/mol","-54,6 cal/mol/K",,2.49,,,~3,2.98
